Experimental data reported in PubChem BioAssay AID2060892 (Molecular Pharmacology Branch, DTP, NCI, 2025).

System: HOP-62 complex spheroids with HUVEC/MSC, viability
Experiment: Anticancer human tumor HOP-62 cell line growth inhibition [RAS];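 note: spheroids exposed to agents for seven days before readout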;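 for viability, T/C: 100% = DMSO vehicle control viability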
Settings: for IC50: curve of first compound; for viability, T/C: stronger effect = lower value
How it was run: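 Tumour cells grown as complex spheroids with HUVEC endothelial cells and mesenchymal stem cells, treated with RAS pathway inhibitor combinations. Each agent spans half-log steps from near clinical Cmax, or 10 microM where Cmax is unknown.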

[1] = second compound 0.00316 µM, first compound 0.0316 µM
[2] = second compound 0.00316 µM, first compound 0.1 µM
[3] = second compound 0.00316 µM, first compound 0.316 µM
[4] = second compound 0.00316 µM, first compound 1 µM
[5] = second compound 0.00316 µM, first compound 3.16 µM
[6] = second compound 0.00316 µM, first compound 10 µM
[7] = second compound 0.01 µM, first compound 0.0316 µM
[8] = second compound 0.01 µM, first compound 0.1 µM
[9] = second compound 0.01 µM, first compound 0.316 µM
[10] = second compound 0.01 µM, first compound 1 µM
[11] = second compound 0.01 µM, first compound 3.16 µM
[12] = second compound 0.01 µM, first compound 10 µM
[13] = second compound 0.0316 µM, first compound 0.0316 µM
[14] = second compound 0.0316 µM, first compound 0.1 µM
[15] = second compound 0.0316 µM, first compound 0.316 µM
[16] = second compound 0.0316 µM, first compound 1 µM
[17] = second compound 0.0316 µM, first compound 3.16 µM
[18] = second compound 0.0316 µM, first compound 10 µM
[19] = second compound 0.1 µM, first compound 0.0316 µM
[20] = second compound 0.1 µM, first compound 0.1 µM
[21] = second compound 0.1 µM, first compound 0.316 µM
[22] = second compound 0.1 µM, first compound 1 µM
[23] = second compound 0.1 µM, first compound 3.16 µM
[24] = second compound 0.1 µM, first compound 10 µM
[25] = second compound 0.316 µM, first compound 0.0316 µM
[26] = second compound 0.316 µM, first compound 0.1 µM
[27] = second compound 0.316 µM, first compound 0.316 µM
[28] = second compound 0.316 µM, first compound 1 µM
[29] = second compound 0.316 µM, first compound 3.16 µM
[30] = second compound 0.316 µM, first compound 10 µM
[31] = second compound 1 µM, first compound 0.0316 µM
[32] = second compound 1 µM, first compound 0.1 µM
[33] = second compound 1 µM, first compound 0.316 µM
[34] = second compound 1 µM, first compound 1 µM
[35] = second compound 1 µM, first compound 3.16 µM
[36] = second compound 1 µM, first compound 10 µM

CC(C)NCC(C(=O)N1CCN(c2ncnc3c2C(C)CC3O)CC1)c1ccc(Cl)cc1 (stereo unspecified) + C=CC(=O)N1CCN(c2nc(OCC3CCCN3C)nc3c(F)c(-c4nc(N)cc(C)c4C(F)(F)F)c(Cl)cc23)C(C)C1
IC50 (second compound 0.00316 µM): 1.05 µM
IC50 (second compound 0.01 µM): 0.71 µM
IC50 (second compound 0.0316 µM): 0.464 µM
IC50 (second compound 0.1 µM): 0.45 µM
IC50 (second compound 0.316 µM): 0.554 µM
IC50 (second compound 1 µM): 0.3 µM
viability, T/C [1]: 84.3%
viability, T/C [2]: 78.1%
viability, T/C [3]: 63.4%
viability, T/C [4]: 53.4%
viability, T/C [5]: 31%
viability, T/C [6]: 12.8%
viability, T/C [7]: 71.7%
viability, T/C [8]: 67.5%
viability, T/C [9]: 60.2%
viability, T/C [10]: 46.3%
viability, T/C [11]: 27.1%
viability, T/C [12]: 15.3%
viability, T/C [13]: 74.9%
viability, T/C [14]: 60.5%
viability, T/C [15]: 53.7%
viability, T/C [16]: 39.2%
viability, T/C [17]: 39%
viability, T/C [18]: 12%
viability, T/C [19]: 70%
viability, T/C [20]: 57.8%
viability, T/C [21]: 60.7%
viability, T/C [22]: 34.6%
viability, T/C [23]: 25.4%
viability, T/C [24]: 13.6%
viability, T/C [25]: 61.7%
viability, T/C [26]: 81.3%
viability, T/C [27]: 55.5%
viability, T/C [28]: 39.4%
viability, T/C [29]: 23.5%
viability, T/C [30]: 12.6%
viability, T/C [31]: 69.8%
viability, T/C [32]: 57.1%
viability, T/C [33]: 50.2%
viability, T/C [34]: 39.4%
viability, T/C [35]: 23.9%
viability, T/C [36]: 11.4%

CC(C)n1nc(-c2ccc3oc(N)nc3c2)c2c(N)ncnc21 + C=CC(=O)N1CCN(c2nc(OCC3CCCN3C)nc3c(F)c(-c4nc(N)cc(C)c4C(F)(F)F)c(Cl)cc23)C(C)C1
IC50 (second compound 0.00316 µM): 0.00391 µM
IC50 (second compound 0.01 µM): 0.00362 µM
IC50 (second compound 0.0316 µM): 0.00135 µM
IC50 (second compound 0.1 µM): 0.00129 µM
IC50 (second compound 0.316 µM): 0.0013 µM
IC50 (second compound 1 µM): 0.00154 µM
viability, T/C (second compound 0.00316 µM, first compound 0.000316 µM): 65.2%
viability, T/C (second compound 0.00316 µM, first compound 0.001 µM): 62.2%
viability, T/C (second compound 0.00316 µM, first compound 0.00316 µM): 51.7%
viability, T/C (second compound 0.00316 µM, first compound 0.01 µM): 39.5%
viability, T/C [1]: 26.7%
viability, T/C [2]: 17.2%
viability, T/C (second compound 0.01 µM, first compound 0.000316 µM): 63%
viability, T/C (second compound 0.01 µM, first compound 0.001 µM): 62.7%
viability, T/C (second compound 0.01 µM, first compound 0.00316 µM): 52.6%
viability, T/C (second compound 0.01 µM, first compound 0.01 µM): 33%
viability, T/C [7]: 27%
viability, T/C [8]: 17.2%
viability, T/C (second compound 0.0316 µM, first compound 0.000316 µM): 61.4%
viability, T/C (second compound 0.0316 µM, first compound 0.001 µM): 51.9%
viability, T/C (second compound 0.0316 µM, first compound 0.00316 µM): 43%
viability, T/C (second compound 0.0316 µM, first compound 0.01 µM): 34.4%
viability, T/C [13]: 23.9%
viability, T/C [14]: 14%
viability, T/C (second compound 0.1 µM, first compound 0.000316 µM): 59.5%
viability, T/C (second compound 0.1 µM, first compound 0.001 µM): 53.2%
viability, T/C (second compound 0.1 µM, first compound 0.00316 µM): 40.6%
viability, T/C (second compound 0.1 µM, first compound 0.01 µM): 27%
viability, T/C [19]: 20.8%
viability, T/C [20]: 14.1%
viability, T/C (second compound 0.316 µM, first compound 0.000316 µM): 61.1%
viability, T/C (second compound 0.316 µM, first compound 0.001 µM): 49.6%
viability, T/C (second compound 0.316 µM, first compound 0.00316 µM): 45.8%
viability, T/C (second compound 0.316 µM, first compound 0.01 µM): 25.9%
viability, T/C [25]: 22.1%
viability, T/C [26]: 12.9%
viability, T/C (second compound 1 µM, first compound 0.000316 µM): 64.9%
viability, T/C (second compound 1 µM, first compound 0.001 µM): 50.1%
viability, T/C (second compound 1 µM, first compound 0.00316 µM): 47.7%
viability, T/C (second compound 1 µM, first compound 0.01 µM): 30.2%
viability, T/C [31]: 20.9%
viability, T/C [32]: 13.2%

C[C@@H](NC(=O)c1ncnc(N)c1Cl)c1ncc(C(=O)Nc2cc(C(F)(F)F)c(Cl)cn2)s1 + C=CC(=O)N1CCN(c2nc(OCC3CCCN3C)nc3c(F)c(-c4nc(N)cc(C)c4C(F)(F)F)c(Cl)cc23)C(C)C1
IC50 (second compound 0.00316 µM): > 10 µM
IC50 (second compound 0.01 µM): 8.69 µM
IC50 (second compound 0.0316 µM): 4.32 µM
IC50 (second compound 0.1 µM): 7.86 µM
IC50 (second compound 0.316 µM): > 10 µM
IC50 (second compound 1 µM): > 10 µM
viability, T/C [1]: 88.6%
viability, T/C [2]: 80.2%
viability, T/C [3]: 80.9%
viability, T/C [4]: 83.9%
viability, T/C [5]: 71.8%
viability, T/C [6]: 53.3%
viability, T/C [7]: 74.8%
viability, T/C [8]: 67%
viability, T/C [9]: 69.7%
viability, T/C [10]: 67.1%
viability, T/C [11]: 63.4%
viability, T/C [12]: 48.1%
viability, T/C [13]: 69.1%
viability, T/C [14]: 67%
viability, T/C [15]: 71.1%
viability, T/C [16]: 70%
viability, T/C [17]: 52.2%
viability, T/C [18]: 43.9%
viability, T/C [19]: 69.2%
viability, T/C [20]: 68.5%
viability, T/C [21]: 64%
viability, T/C [22]: 70.3%
viability, T/C [23]: 58%
viability, T/C [24]: 47.6%
viability, T/C [25]: 67.5%
viability, T/C [26]: 67%
viability, T/C [27]: 69.8%
viability, T/C [28]: 64.7%
viability, T/C [29]: 57.7%
viability, T/C [30]: 49.2%
viability, T/C [31]: 66.7%
viability, T/C [32]: 63.3%
viability, T/C [33]: 64.1%
viability, T/C [34]: 63.6%
viability, T/C [35]: 55.9%
viability, T/C [36]: 52.4%
